Reference: the CheMixHub ionic liquid set

Assay: xn = mol fraction of the nth substance listed
Settings: 101 kPa

CS(=O)(=O)[O-].C[N+](C)(CCO)CCO + CCO
viscosity [mPa·s]
Settings | x1 = 0.099 | x1 = 0.2 | x1 = 0.2984 | x1 = 0.4 | x1 = 0.5005 | x1 = 0.6011 | x1 = 0.7008 | x1 = 0.7993 | x1 = 0.8954 | x1 = 1
298.15 K | 3.21 | 8.15 | 18.5 | 39.7 | 80.7 | 176 | 319 | 556 | 950 | 1495
303.15 K | 2.89 | 7.02 | 15.54 | 32.2 | 63.3 | 133.2 | 236 | 399 | 664 | 1021
308.15 K | 2.61 | 6.13 | 13.16 | 26.5 | 50.5 | 92.7 | 178 | 293 | 476 | 716
313.15 K | 2.32 | 5.38 | 11.4 | 22.1 | 41 | 73.2 | 136.8 | 221 | 350 | 513
318.15 K | 2.13 | 4.76 | 9.92 | 18.6 | 33.7 | 58.6 | 106.9 | 169 | 262 | 378
323.15 K | 1.9 | 4.24 | 8.58 | 15.85 | 28 | 47.6 | 76.5 | 132.1 | 201 | 282
